Each compound was assayed against T1, factor D (Homo sapiens, UniProt P00746) (assay: factor D inhibition assay of Biological Example 2).
T1 construct: made in house; host or cells: E. coli
Format: biochemical

T1 sequence (P00746 26-253): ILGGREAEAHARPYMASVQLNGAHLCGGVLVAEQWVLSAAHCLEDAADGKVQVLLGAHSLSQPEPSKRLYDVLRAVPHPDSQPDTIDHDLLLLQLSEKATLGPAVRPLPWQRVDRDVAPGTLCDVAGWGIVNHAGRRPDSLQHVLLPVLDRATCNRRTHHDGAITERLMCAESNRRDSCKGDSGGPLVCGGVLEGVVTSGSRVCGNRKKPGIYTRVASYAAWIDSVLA

SMILES | IC50 [µM]
C[C@@H](N)c1cccc(-c2cc(COc3ccccc3CC(=O)O)cc(S(C)(=O)=O)c2)c1F [Example 250-D, (R)-2-(2-((3′-(1-aminoethyl)-2′-fluoro-5-(methylsulfonyl)-[1,1′-biphenyl]-3-yl)methoxy)phenyl)acetic acid] | 0.113
C[C@@H](N)c1cccc(-c2cc(COc3ccccc3CC(=O)O)cc(S(C)(=O)=O)c2)c1 [Example 251, (R)-2-(2-((3′-(1-aminoethyl)-5-(methylsulfonyl)-[1,1′-biphenyl]-3-yl)methoxy)phenyl)acetic acid] | 0.158
C[C@H](N)c1cccc(-c2cc(COc3ccccc3CC(=O)O)cc(S(C)(=O)=O)c2)c1F [Example 252, (S)-2-(2-((3′-(1-aminoethyl)-2′-fluoro-5-(methylsulfonyl)-[1,1′-biphenyl]-3-yl)methoxy)phenyl)acetic acid] | 1.58
C[C@@H](N)c1cccc(-c2cc(COc3ccccc3CC(=O)O)c3c(c2)OCO3)c1F [Example 253-E, (R)-2-(2-((6-(3-(1-Aminoethyl)-2-fluorophenyl)benzo[d][1,3]dioxol-4-yl)methoxy)phenyl)acetic acid] | 0.013
C[C@@H](N)c1cccc(-c2cc(COc3ccccc3CC(=O)O)c3c(c2)OCO3)c1 [Example 254, (R)-2-(2-((6-(3-(1-aminoethyl)phenyl)benzo[d][1,3]dioxol-4-yl)methoxy)phenyl)acetic acid] | 0.032
N[C@H](CO)c1cccc(-c2cc(COc3ccccc3CC(=O)O)c3c(c2)OCO3)c1 [Example 255, (S)-2-(2-((6-(3-(1-amino-2-hydroxyethyl)phenyl)benzo[d][1,3]dioxol-4-yl)methoxy)phenyl)acetic acid] | 0.009
CCOc1cc(COc2ccccc2CC(=O)O)cc(-c2cccc([C@@H](C)N)c2F)c1 [Example 256-B, (R)-2-(2-((3′-(1-Aminoethyl)-5-ethoxy-2′-fluoro-[1,1′-biphenyl]-3-yl)methoxy)phenyl)acetic acid] | 0.003
CCOc1cc(COc2ccccc2CC(=O)O)cc(-c2cccc([C@@H](C)N)c2)c1 [Example 257, (R)-2-(2-((3′-(1-aminoethyl)-5-ethoxy-[1,1′-biphenyl]-3-yl)methoxy)phenyl)acetic acid] | 0.009
CCOc1cc(COc2ccccc2CC(=O)O)cc(-c2cccc(C(N)CF)c2F)c1 (stereo not drawn) [Example 258-C, 2-(2-((3′-(1-amino-2-fluoroethyl)-5-ethoxy-2′-fluoro-[1,1′-biphenyl]-3-yl)methoxy)phenyl)acetic acid] | 0.011
C[C@@H](N)c1cccc(-c2cc(COc3ccccc3CC(=O)O)cc(OCC3(C)CC3)c2)c1F [Example 259-E, (R)-2-(2-((3′-(1-aminoethyl)-2′-fluoro-5-((1-methylcyclopropyl)methoxy)-[1,1′-biphenyl]-3-yl)methoxy)phenyl)acetic acid] | 0.022
C[C@H](N)c1cccc(-c2cc(COc3ccccc3CC(=O)O)cc(OCC3(C)CC3)c2)c1F [Example 260, (S)-2-(2-((3′-(1-aminoethyl)-2′-fluoro-5-((1-methylcyclopropyl)methoxy)-[1,1′-biphenyl]-3-yl)methoxy)phenyl)acetic acid] | 0.039
C[C@@H](N)c1cccc(-c2cc(COc3ccccc3CC(=O)O)cc(OCC3(C)CC3)c2)c1 [Example 261, (R)-2-(2-((3′-(1-aminoethyl)-5-((1-methylcyclopropyl)methoxy)-[1,1′-biphenyl]-3-yl)methoxy)phenyl)acetic acid] | 0.024
C[C@@H](N)c1cccc(-c2cc(COc3ccccc3CC(=O)O)cc(OCC3(C)COC3)c2)c1F [Example 262, (R)-2-(2-((3′-(1-aminoethyl)-2′-fluoro-5-((3-methyloxetan-3-yl)methoxy)-[1,1′-biphenyl]-3-yl)methoxy)phenyl)acetic acid] | 0.041
C[C@@H](N)c1cccc(-c2cc(COc3ccccc3CC(=O)O)cc(OCC3(C)COC3)c2)c1 [Example 263, (R)-2-(2-((3′-(1-aminoethyl)-5-((3-methyloxetan-3-yl)methoxy)-[1,1′-biphenyl]-3-yl)methoxy)phenyl)acetic acid] | 0.014
C[C@@H](N)c1cccc(-c2cc(COc3ccccc3CC(=O)O)cc(OCC3CCCCO3)c2)c1F (stereo partly drawn) [Example 264, 2-(2-((3′-((R)-1-aminoethyl)-2′-fluoro-5-((tetrahydro-2H-pyran-2-yl)methoxy)-[1,1′-biphenyl]-3-yl)methoxy)phenyl)acetic acid] | 0.015
C[C@@H](N)c1cccc(-c2cc(COc3ccccc3CC(=O)O)cc(OCC3CCCCO3)c2)c1 (stereo partly drawn) [Example 265, 2-(2-((3′-((R)-1-aminoethyl)-5-((tetrahydro-2H-pyran-2-yl)methoxy)-[1,1′-biphenyl]-3-yl)methoxy)phenyl)acetic acid] | 0.007
C[C@@H](N)c1cccc(-c2cc(COc3ccccc3CC(=O)O)cc(OCC3CCCN3)c2)c1F (stereo partly drawn) [Example 266, 2-(2-((3′-((R)-1-aminoethyl)-2′-fluoro-5-(pyrrolidin-2-ylmethoxy)-[1,1′-biphenyl]-3-yl)methoxy)phenyl)acetic acid] | 0.034
C[C@@H](N)c1cccc(-c2cc(COc3ccccc3CC(=O)O)cc(OCC3CCCN3)c2)c1 (stereo partly drawn) [Example 267, 2-(2-((3′-((R)-1-aminoethyl)-5-(pyrrolidin-2-ylmethoxy)-[1,1′-biphenyl]-3-yl)methoxy)phenyl)acetic acid] | 0.039

SMILES | IC50 [µM]
CCOC(=O)Cc1ccccc1OCc1cccc(-c2cccc([C@H](N)CO)c2)c1 [Example 268-C, (S)-Ethyl 2-(2-((3′-(1-amino-2-hydroxyethyl)-[1,1′-biphenyl]-3-yl)methoxy)phenyl)acetate] | 54.8
C[C@@H](N)c1cccc(-c2cc(CCCF)cc(COc3ccccc3CC(=O)O)c2)c1F [Example 269-E, (R)-2-(2-((3′-(1-aminoethyl)-2′-fluoro-5-(3-fluoropropyl)-[1,1′-biphenyl]-3-yl)methoxy)phenyl)acetic acid] | 0.009
C[C@H](N)c1cccc(-c2cc(CCCF)cc(COc3ccccc3CC(=O)O)c2)c1F [Example 270, (S)-2-(2-((3′-(1-aminoethyl)-2′-fluoro-5-(3-fluoropropyl)-[1,1′-biphenyl]-3-yl)methoxy)phenyl)acetic acid] | 0.011
C[C@@H](N)c1cccc(-c2cc(CCCF)cc(COc3ccccc3CC(=O)O)c2)c1 [Example 271, (R)-2-(2-((3′-(1-aminoethyl)-5-(3-fluoropropyl)-[1,1′-biphenyl]-3-yl)methoxy)phenyl)acetic acid] | 0.01
N[C@H](CO)c1cccc(-c2cc(CCCF)cc(COc3ccccc3CC(=O)O)c2)c1 [Example 272, (S)-2-(2-((3′-(1-amino-2-hydroxyethyl)-5-(3-fluoropropyl)-[1,1′-biphenyl]-3-yl)methoxy)phenyl)acetic acid] | 0.01
Cc1ccc(-c2cccc([C@@H](C)N)c2F)cc1COc1ccccc1CC(=O)O [Example 273-B, (R)-2-(2-((3′-(1-aminoethyl)-2′-fluoro-4-methyl-[1,1′-biphenyl]-3-yl)methoxy)phenyl)acetic acid] | 0.014
Cc1ccc(-c2cccc([C@H](C)N)c2F)cc1COc1ccccc1CC(=O)O [Example 274, (S)-2-(2-((3′-(1-aminoethyl)-2′-fluoro-4-methyl-[1,1′-biphenyl]-3-yl)methoxy)phenyl)acetic acid] | 0.34
C[C@@H](N)c1cccc(-c2ccc(Cl)c(COc3ccccc3CC(=O)O)c2)c1F [Example 275, (R)-2-(2-((3′-(1-aminoethyl)-4-chloro-2′-fluoro-[1,1′-biphenyl]-3-yl)methoxy)phenyl)acetic acid] | 0.013
COc1ccc(-c2cccc([C@@H](C)N)c2F)cc1COc1ccccc1CC(=O)O [Example 276, (R)-2-(2-((3′-(1-aminoethyl)-2′-fluoro-4-methoxy-[1,1′-biphenyl]-3-yl)methoxy)phenyl)acetic acid] | 0.16
N[C@H](CO)c1cc(Cl)cc(-c2cccc(COc3ccccc3CC(=O)O)c2)c1 [Example 277-C, (S)-2-(2-((3′-(1-Amino-2-hydroxyethyl)-5′-chloro-[1,1′-biphenyl]-3-yl)methoxy)phenyl)acetic acid] | 0.19
NC(CCF)c1cccc(-c2cccc(COc3ccccc3CC(=O)O)c2)c1 (stereo not drawn) [Example 278-B, 2-(2-((3′-(1-amino-3-fluoropropyl)-[1,1′-biphenyl]-3-yl)methoxy)phenyl)acetic acid] | 0.49
N[C@H](CCF)c1cccc(-c2cc(Cl)cc(COc3ccccc3CC(=O)O)c2)c1 [Example 279-B, (R)-2-(2-((3′-(1-amino-3-fluoropropyl)-5-chloro-[1,1′-biphenyl]-3-yl)methoxy)phenyl)acetic acid] | 0.29
C[C@@H](N)c1cccc(-c2ccc(C3CC3)c(COc3ccccc3CC(=O)O)c2)c1F [Example 280, (R)-2-(2-((3′-(1-aminoethyl)-4-cyclopropyl-2′-fluoro-[1,1′-biphenyl]-3-yl)methoxy)phenyl)acetic acid] | 0.006
C[C@@H](N)c1cccc(-c2cc(COc3ccccc3CC(=O)O)cc(NCC3CC3(F)F)c2)c1F (stereo partly drawn) [Example 281-E, 2-(2-((3′-((R)-1-Aminoethyl)-5-(((2,2-difluorocyclopropyl)methyl)amino)-2′-fluoro-[1,1′-biphenyl]-3-yl)methoxy)phenyl)acetic acid] | 0.014
CCc1ccc(-c2cccc([C@@H](C)N)c2F)cc1COc1ccccc1CC(=O)O [Example 282-D, (R)-2-(2-((3′-(1-aminoethyl)-4-ethyl-2′-fluoro-[1,1′-biphenyl]-3-yl)methoxy)phenyl)acetic acid] | 0.016
Cc1cc(-c2cccc([C@@H](C)N)c2F)cc(COc2ccccc2CC(=O)O)c1C [Example 283, (R)-2-(2-((3′-(1-aminoethyl)-2′-fluoro-4,5-dimethyl-[1,1′-biphenyl]-3-yl)methoxy)phenyl)acetic acid] | 0.013
N[C@H](CF)c1cccc(-c2cc(CNCC(F)(F)F)cc(COc3ccccc3CC(=O)O)c2)c1 [Example 284-B, (S)-2-(2-((3′-(1-amino-2-fluoroethyl)-5-(((2,2,2-trifluoroethyl)amino)methyl)-[1,1′-biphenyl]-3-yl)methoxy)phenyl)acetic acid] | 0.228
NC(CF)c1cccc(-c2cc(CNCC(F)(F)F)cc(COc3ccccc3CC(=O)O)c2)c1F (stereo not drawn) [Example 285-A] | 0.035

— patent US20160145247A1, “Aminomethyl-Biaryl Derivatives Complement Factor D inhibitors and uses thereof” (NOVARTIS AG, priority 2013, published 2016)
